The record followed here is ChEMBL document CHEMBL4806965, “Nek6 kinase inhibitors useful for the treatment of solid tumors” (2019).

Test [1] relates to PEO1. The experiment in a line: Cytotoxicity against human PEO1 cells assessed as inhibition of cell growth after 72 hrs by ATPlite assay. The format is functional, cell-based. As to conditions: PEO1, 72 h.
The subject of test [2] is PEO1. In words: Synergistic cytotoxicity against human PEO1 cells assessed as combination index at 44 uM after 72 hrs in presence of 0.1 uM of cisplatin by ATPlite assay. The format is functional. Background: In ATP-based viability assays light output follows the ATP content of the culture.
For test [3], the system named is PEO1. The experiment in a line: Synergistic cytotoxicity against human PEO1 cells assessed as combination index at 44 uM after 72 hrs in presence of 1 uM of cisplatin by ATPlite assay. The format is functional.
The subject of test [4] is PEO1. The experiment in a line: Synergistic cytotoxicity against human PEO1 cells assessed as combination index at 44 uM after 72 hrs in presence of 2 uM of cisplatin by ATPlite assay. The format is functional.
Test [5] deals with PEO1. In words: Synergistic cytotoxicity against human PEO1 cells assessed as combination index at 44 uM after 72 hrs in presence of 5 uM of cisplatin by ATPlite assay. The format is functional.
For test [6], the system named is PEO1. In words: Synergistic cytotoxicity against human PEO1 cells assessed as combination index at 44 uM after 72 hrs in presence of 10 uM of cisplatin by ATPlite assay. The format is functional.
Test [7] relates to PEO1. In words: Synergistic cytotoxicity against human PEO1 cells assessed as combination index at 44 uM after 72 hrs in presence of 1 uM of paclitaxel by ATPlite assay. The format is functional.
Test [8] relates to PEO1. The experiment in a line: Synergistic cytotoxicity against human PEO1 cells assessed as combination index at 44 uM after 72 hrs in presence of 10 uM of paclitaxel by ATPlite assay. The format is functional.
The subject of test [9] is PEO1. In words: Synergistic cytotoxicity against human PEO1 cells assessed as combination index at 44 uM after 72 hrs in presence of 100 uM of paclitaxel by ATPlite assay. The format is functional.
The test system of test [10] is PEO1. The experiment in a line: Synergistic cytotoxicity against human PEO1 cells assessed as combination index at 44 uM after 72 hrs in presence of 1000 uM of paclitaxel by ATPlite assay. The format is functional.
The subject of test [11] is PEO1. In words: Synergistic cytotoxicity against human PEO1 cells assessed as combination index at 44 uM after 72 hrs in presence of 10000 uM of paclitaxel by ATPlite assay. The format is functional.

As a reminder, the pIC50 is the negative decadic logarithm of the IC50, by convention in mol/L.

pIC50: −log10 of the molar value.

Take `CC(=O)O[C@H]1C(=O)[C@@]2(C)[C@H]([C@H](OC(=O)c3ccccc3)[C@]3(O)C[C@H](OC(=O)[C@H](O)[C@@H](NC(=O)c4ccccc4)c4ccccc4)C(C)=C1C3(C)C)[C@]1(OC(C)=O)CO[C@@H]1C[C@@H]2O` [PACLITAXEL]: in test [1], the pIC50 is 5.15.
For the compound `CC1=C(C#N)C(O)=NC(=O)/C1=C\c1ccc(-c2ccccc2)o1`, in [1], the pIC50 is 4.36. In addition, the CI amounted to 0.81 in test [2]; 1.08 in test [3]; 1.01 in [4]; 1.03 in test [5]; 0.69 in test [6]; 0.87 in test [7]. In addition, the CI in [8] is 1.05; in [9], 4.68; in test [10] it was 29.58; in test [11], 287.79.
